Like-named read-outs stand apart in the source and are kept apart here. Values belong to the compound of their own block, whether it stands above or below them.
Experiments:
Assay type in all cases: biochemical
murine 11β-HSD2 = molecular target: T1, murine 11β-HSD2 (Mus musculus, UniProt P51661); assay: scintillation proximity assay (SPA), murine 11β-HSD2
T1 construct: The full-length cDNAs of human or murine11β-HSD1 and 11β-HSD2 were isolated from the cDNA libraries; made in house; host or cells: HEK-293, stably transfected with a pcDNA3 plasmid; microsomal fraction
T1 sequence (P51661 1-386): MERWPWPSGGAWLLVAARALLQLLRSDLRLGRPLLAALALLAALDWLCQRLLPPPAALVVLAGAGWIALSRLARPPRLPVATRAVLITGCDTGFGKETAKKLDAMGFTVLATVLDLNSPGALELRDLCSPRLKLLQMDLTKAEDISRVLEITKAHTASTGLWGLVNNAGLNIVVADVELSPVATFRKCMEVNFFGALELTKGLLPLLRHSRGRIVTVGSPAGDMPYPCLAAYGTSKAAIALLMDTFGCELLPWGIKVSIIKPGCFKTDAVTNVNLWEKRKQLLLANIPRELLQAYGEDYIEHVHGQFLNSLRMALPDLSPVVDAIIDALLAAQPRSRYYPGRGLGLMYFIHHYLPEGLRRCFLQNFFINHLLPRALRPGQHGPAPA
Method: (§1) The inhibitory activity of compounds 1–3 on murine and human 11β-HSD1 was evaluated using the scintillation proximity assay (SPA)[25]. […] We further used the intact cell transfected with human HSD11B1 and HSD11B2 to screen their bioactivities.
(§2) The inhibitory activities of the compounds on human or mouse 11β-HSD1 and 11β-HSD2 were determined using the scintillation proximity assay (SPA). The full-length cDNAs of human or murine11β-HSD1 and 11β-HSD2 were isolated from the cDNA libraries provided by NIH Mammalian Gene Collection. The cDNAs were cloned into pcDNA3 expression vectors. HEK-293 cells were transfected with the pcDNA3-derived expression plasmid and selected by cultivation in the presence of 700 μg/ml of G418. The microsomal fraction overexpressing 11β-HSD1 or 11β-HSD2 was prepared from the HEK-293 cells, which were stably transfected with 11β-HSD1 or 11β-HSD2. The fraction was then used as the enzyme source for SPA. Microsomes containing human or mouse 11β-HSD1 were incubated with NADPH and [^3H] cortisone. The product, [^3H] cortisol, was specifically captured by a monoclonal antibody coupled to protein A-coated SPA beads. The 11β-HSD2 screening was performed by incubating 11β-HSD2 microsomes with [^3H] cortisol and NAD + and monitoring substrate disappearance. […] IC50 (X + SD, n = 2) values were calculated by using Prism Version 4 (GraphPad Software, SanDiego, CA).

human 11β-HSD1 = molecular target: T2, human 11β-HSD1 (Homo sapiens, UniProt P28845); assay: scintillation proximity assay (SPA), human 11β-HSD1
T2 construct: The full-length cDNAs of human or murine11β-HSD1 and 11β-HSD2 were isolated from the cDNA libraries; made in house; host or cells: HEK-293, stably transfected with a pcDNA3 plasmid; microsomal fraction
T2 sequence (P28845 whole entry): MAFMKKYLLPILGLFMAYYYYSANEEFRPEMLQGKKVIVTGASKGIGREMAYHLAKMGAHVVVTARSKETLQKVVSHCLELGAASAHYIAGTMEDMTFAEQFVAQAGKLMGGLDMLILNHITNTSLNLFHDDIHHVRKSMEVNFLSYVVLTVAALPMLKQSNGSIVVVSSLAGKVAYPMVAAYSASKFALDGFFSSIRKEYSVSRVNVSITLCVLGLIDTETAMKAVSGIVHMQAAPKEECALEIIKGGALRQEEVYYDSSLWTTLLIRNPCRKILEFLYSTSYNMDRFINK
Method: as §1, §2

murine 11β-HSD1 = molecular target: T3, murine 11β-HSD1 (Mus musculus, UniProt P50172); assay: scintillation proximity assay (SPA), murine 11β-HSD1
T3 construct: The full-length cDNAs of human or murine11β-HSD1 and 11β-HSD2 were isolated from the cDNA libraries; made in house; host or cells: HEK-293, stably transfected with a pcDNA3 plasmid; microsomal fraction
T3 sequence (P50172 whole entry): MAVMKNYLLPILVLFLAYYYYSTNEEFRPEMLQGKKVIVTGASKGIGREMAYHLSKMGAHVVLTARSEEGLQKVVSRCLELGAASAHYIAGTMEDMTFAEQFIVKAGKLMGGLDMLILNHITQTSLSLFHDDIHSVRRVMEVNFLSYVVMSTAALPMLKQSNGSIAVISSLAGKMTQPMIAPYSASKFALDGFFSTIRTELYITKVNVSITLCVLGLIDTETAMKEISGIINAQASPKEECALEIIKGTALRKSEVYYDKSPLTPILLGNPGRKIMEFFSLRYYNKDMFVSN
Method: The inhibitory activity of compounds 1–3 on murine and human 11β-HSD1 was evaluated using the scintillation proximity assay (SPA)[25]. […] We further used the intact cell transfected with human HSD11B1 and HSD11B2 to screen their bioactivities. […] The inhibitory activities of the compounds on human or mouse 11β-HSD1 and 11β-HSD2 were determined using the scintillation proximity assay (SPA). The full-length cDNAs of human or murine11β-HSD1 and 11β-HSD2 were isolated from the cDNA libraries provided by NIH Mammalian Gene Collection. The cDNAs were cloned into pcDNA3 expression vectors. HEK-293 cells were transfected with the pcDNA3-derived expression plasmid and selected by cultivation in the presence of 700 μg/ml of G418. The microsomal fraction overexpressing 11β-HSD1 or 11β-HSD2 was prepared from the HEK-293 cells, which were stably transfected with 11β-HSD1 or 11β-HSD2. The fraction was then used as the enzyme source for SPA. Microsomes containing human or mouse 11β-HSD1 were incubated with NADPH and [^3H] cortisone. The product, [^3H] cortisol, was specifically captured by a monoclonal antibody coupled to protein A-coated SPA beads. The 11β-HSD2 screening was performed by incubating 11β-HSD2 microsomes with [^3H] cortisol and NAD + and monitoring substrate disappearance. All tests were done twice with glycyrrhizinic acid as a positive control.

human 11β-HSD2 = assay: scintillation proximity assay (SPA), human 11β-HSD2; settings: human 11β-HSD2 vs human 11β-HSD1
Method: as §1, §2

inhibition of murine 11β-HSD2 activity (murine 11β-HSD2; at 1 mM): did not inhibit the enzyme at all | SI (selectivity against murine 11β-HSD2) (murine 11β-HSD2; murine 11β-HSD2 vs murine 11β-HSD1): > 1661 | inhibitory activity against human 11β-HSD1 enzyme (human 11β-HSD1; in words): low inhibitory activity | inhibition at 0.1 µM (murine 11β-HSD1; 0.1 μM, read-out: Inhibition rate on murine 11β-HSD1): 22.8% | inhibition at 0.3 µM (murine 11β-HSD1; 0.3 μM, read-out: Inhibition rate on murine 11β-HSD1): 35.1% | inhibition at 1 µM (murine 11β-HSD1; 1 μM, read-out: Inhibition rate on murine 11β-HSD1): 55.8% | inhibition at 3 µM (murine 11β-HSD1; 3 μM, read-out: Inhibition rate on murine 11β-HSD1): 79.4% | inhibition at 10 µM (murine 11β-HSD1; 10 μM, read-out: Inhibition rate on murine 11β-HSD1): 90.5% | IC50 (murine 11β-HSD1; SPA, text: intact CHOP cells transfected with murine HSD11B1, read-out: IC50, inhibition of murine 11β-HSD1): 600 nM
SMILES: CC1(C)OC(=O)C=C[C@]2(C)O[C@@]3(CC4=C5C(=O)O[C@@H](c6ccoc6)[C@]5(C)CC[C@H]4O3)C[C@H]12 [Compound 1, Harperspinoid A]

IC50 (human 11β-HSD1; SPA, text: intact cell transfected with human HSD11B1, whole cell assay, read-out: IC50, inhibition of human 11β-HSD1): 580 nM
SMILES: CC1=CC23C(=O)OC(C)(C)C1CC2(O)CC1=C2C(=O)OC(c4ccoc4)C2(C)CCC13 (centres unmarked) [Compound 3, Harperforin G]
SI (selectivity against human 11β-HSD2) (human 11β-HSD2): > 174

inhibition at 0.001 µM (murine 11β-HSD1; 1 nM, read-out: Inhibition rate on murine 11β-HSD1): 21.2% | inhibition at 0.01 µM (murine 11β-HSD1; 10 nM, read-out: Inhibition rate on murine 11β-HSD1): 51.9% | inhibition at 0.1 µM (murine 11β-HSD1; 100 nM, read-out: Inhibition rate on murine 11β-HSD1): 86.8%
SMILES: CC1(C)[C@@H](O[C@H]2O[C@H](C(=O)O)[C@@H](O)[C@H](O)[C@H]2O[C@@H]2O[C@H](C(=O)O)[C@@H](O)[C@H](O)[C@H]2O)CC[C@]2(C)[C@H]3C(=O)C=C4[C@@H]5C[C@@](C)(C(=O)O)CC[C@]5(C)CC[C@@]4(C)[C@]3(C)CC[C@@H]12 [Glycyrrhizic acid, reference compound]

— article PMC5105127, “16-nor Limonoids from Harrisonia perforata as promising selective 11β-HSD1 inhibitors” (Scientific Reports, 2016)
